Assay results reported in paper PMC4193996 (Journal of Experimental & Clinical Cancer Research : CR, 2014).

How the values were obtained:
[1] = system: BJ-EHLT fibroblasts; test: γ-H2AX/PCNA co-immunostaining (replication-dependent DNA damage); format: cell-based, human; conditions: 24 hrs
Description: (§1) Cells were fixed in 2% formaldehyde and permeabilized in 0.25% Triton X100 in PBS for 5 min at room temperature. For immunolabeling, cells were incubated with primary antibody, then washed in PBS and incubated with the secondary antibodies. The following primary antibodies were used: pAb and mAb anti-TRF1(Abcam Ltd.; Cambridge UK); mAb (Upstate, Lake Placid, NY) and pAb anti-γH2AX (Abcam); mAb anti-PCNA (Sigma Chemicals, Milano, Italy). The following secondary antibody were used: TRITC conjugated Goat anti Rabbit, FITC conjugated Goat anti Mouse (Jackson ImmunoResearch Europe Ltd., Suffolk, UK). Fluorescence signals were recorded by using a Leica DMIRE2 microscope equipped with a Leica DFC 350FX camera and elaborated by a Leica FW4000 deconvolution software (Leica, Solms, Germany). This system permits to focus single planes inside the cell generating 3D highresolution images. For quantitative analysis of γH2AX positivity, 200 cells on triplicate slices were scored. For TIFs analysis, in each nucleus a single plane was analyzed and at least 50 nuclei per sample were scored.
Figure 2 DNA damage activation at telomeres. BJ-EHLT fibroblasts were treated for 24 hrs with compound 1 and the indicated ligands at the doses 0.1 (light-grey bars) and 0.5 μM (dark-grey bars). […] Cells with four or more γ-H2AX/TRF1 foci were scored as TIF positive. […]

[2] = system: hairpin duplex, 5'-biotin-CGA3T3C(CT)2GA3T3CG (DNA, hairpin) CGAAATTTCCTCTGAAATTTCG; test: SPR
[3] = system: BJ-EHLT fibroblasts; test: γ-H2AX/TRF1 colocalization (TIFs, telomere uncapping); format: cell-based, human
Description: as §1
Unfortunately, we were not able to test compounds 4, 5 and the 0,5 μM dose of 3 as they were fluorescent in both red and green channels. […] To ascertain whether γ-H2AX was phosphorylated in response to dysfunctional telomeres, double immunofluorescence experiments were processed by confocal microscopy. We observed that some of the γ-H2AX foci induced by G4-ligands colocalized with TRF1, a good marker for interphase telomeres, forming the so-called telomere dysfunction-induced foci (TIFs) (Figure 2B).
Figure 2 DNA damage activation at telomeres. BJ-EHLT fibroblasts were treated for 24 hrs with compound 1 and the indicated ligands at the doses 0.1 (light-grey bars) and 0.5 μM (dark-grey bars). Cells were processed for immunofluorescence (IF) using antibodies against γ-H2AX and TRF1 to mark DNA damage and telomeres respectively. Percentages of γ-H2AX- (A) and TIF-positive (B) treated and untreated cells are reported in the histograms. (C) Mean number of TIFs in the indicated samples. Cells with four or more γ-H2AX/TRF1 foci were scored as TIF positive. Error bars indicate the standard deviation. (D) Representative images of IF of untreated and 1, 3, 6 and 8-treated BJ-EHLT cells. Enlarged views of TIFs are reported on the right of the merged images. The images were acquired with a Leica Deconvolution microscope (magnification 100x). (E) Cells treated as in (A) were processed for IF of γ-H2AX and PCNA to mark replicating cells. Percentage of γ-H2AX+/PCNA- or γ-H2AX+/PCNA + nuclei in the indicated samples are reported in the histograms.

[4] = target: human recombinant β2 adrenergic receptor (Homo sapiens, UniProt P07550); test: β2 adrenergic receptor inhibition assay; format: binding; conditions: read-out: β2 adrenergic % inh @1 μM
Description: (§2) hEGR study and the M2 and the β2 receptor inhibition assay were performed as previously reported.
(§3) The new G-quadruplex ligands were designed in an attempt to obtain molecules with improved toxicological and on-target profiles, but maintaining the same favorable chemical and pharmacological features of the lead compound 1. With the aim of selecting the best variants, a step by step comparative analysis of their off- and on-target properties was performed. Initially the new molecules were tested for their ability to interact with and inhibit the human recombinant β2 adrenergic and M2 muscarinic receptors, and to reduce the hERG tail current in a patch clamp assay. […] Therefore, we might expect that the new ligands would impair cardiac functionality to a lesser extent than the lead molecule does.

[5] = system: human colon cancer cell line HT-29; test: MTT proliferation assay, HT-29; format: cell-based; conditions: 96 hours
Description: Normal WI-38 diploid human lung fibroblasts and the human colorectal adenocarcinoma HT29 cells were obtained from American Type Culture Collection (Manassas, VA, USA). BJ fibroblasts expressing hTERT and SV40 early region (BJ-EHLT) were obtained as previously reported. Cells were grown in Dulbecco Modified Eagle Medium (D-MEM, Invitrogen Carlsbad, CA, USA) supplemented with 10% fetal calf serum, 2 mM L-glutamin and antibiotics.
MTT (3-(4,5-Dimethylthiazol-2-yl)-2,5-diphenyltetrazolium Bromide) assay was performed in treated and untreated cells for 96 hours. Cells were incubated with MTT solution (Sigma-Aldrich), and the purple formazan crystals were dissolved in isopropanol. Optical densities (OD) at 540 nm was determined on microplate reader.
Firstly, we investigated if they were able to efficiently promote growth inhibition of tumor cells without affecting the survival of normal cells in vitro. In Table 1 we report for each compound the concentration causing 50% of growth inhibition (GI50) calculated by performing a proliferation assay in the human colon cancer cell line HT-29 or in the human ‘normal’ lung WI-38 cells. […] On the basis of results described so far, we decided to exclude from the further analysis ligand 10 for its high value of hERG inhibition (95%) (Table 1).

[6] = target: hERG (Homo sapiens, UniProt Q12809); test: hERG tail current inhibition in a patch clamp assay; format: cell-based; conditions: read-out: hERG % inh @10 μM
Description: as §2, §3

Sequence of human recombinant β2 adrenergic receptor (P07550 whole entry): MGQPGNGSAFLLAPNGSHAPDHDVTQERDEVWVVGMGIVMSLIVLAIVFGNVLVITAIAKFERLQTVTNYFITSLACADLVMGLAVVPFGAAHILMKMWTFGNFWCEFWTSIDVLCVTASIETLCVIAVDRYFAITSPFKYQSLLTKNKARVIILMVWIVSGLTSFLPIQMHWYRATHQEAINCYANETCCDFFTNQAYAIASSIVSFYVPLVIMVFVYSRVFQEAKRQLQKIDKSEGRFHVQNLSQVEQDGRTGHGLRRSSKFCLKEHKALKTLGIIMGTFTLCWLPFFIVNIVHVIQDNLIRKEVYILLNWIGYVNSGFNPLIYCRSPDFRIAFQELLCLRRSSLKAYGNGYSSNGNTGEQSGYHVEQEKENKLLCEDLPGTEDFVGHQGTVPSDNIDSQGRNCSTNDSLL
Sequence of hERG (Q12809 whole entry): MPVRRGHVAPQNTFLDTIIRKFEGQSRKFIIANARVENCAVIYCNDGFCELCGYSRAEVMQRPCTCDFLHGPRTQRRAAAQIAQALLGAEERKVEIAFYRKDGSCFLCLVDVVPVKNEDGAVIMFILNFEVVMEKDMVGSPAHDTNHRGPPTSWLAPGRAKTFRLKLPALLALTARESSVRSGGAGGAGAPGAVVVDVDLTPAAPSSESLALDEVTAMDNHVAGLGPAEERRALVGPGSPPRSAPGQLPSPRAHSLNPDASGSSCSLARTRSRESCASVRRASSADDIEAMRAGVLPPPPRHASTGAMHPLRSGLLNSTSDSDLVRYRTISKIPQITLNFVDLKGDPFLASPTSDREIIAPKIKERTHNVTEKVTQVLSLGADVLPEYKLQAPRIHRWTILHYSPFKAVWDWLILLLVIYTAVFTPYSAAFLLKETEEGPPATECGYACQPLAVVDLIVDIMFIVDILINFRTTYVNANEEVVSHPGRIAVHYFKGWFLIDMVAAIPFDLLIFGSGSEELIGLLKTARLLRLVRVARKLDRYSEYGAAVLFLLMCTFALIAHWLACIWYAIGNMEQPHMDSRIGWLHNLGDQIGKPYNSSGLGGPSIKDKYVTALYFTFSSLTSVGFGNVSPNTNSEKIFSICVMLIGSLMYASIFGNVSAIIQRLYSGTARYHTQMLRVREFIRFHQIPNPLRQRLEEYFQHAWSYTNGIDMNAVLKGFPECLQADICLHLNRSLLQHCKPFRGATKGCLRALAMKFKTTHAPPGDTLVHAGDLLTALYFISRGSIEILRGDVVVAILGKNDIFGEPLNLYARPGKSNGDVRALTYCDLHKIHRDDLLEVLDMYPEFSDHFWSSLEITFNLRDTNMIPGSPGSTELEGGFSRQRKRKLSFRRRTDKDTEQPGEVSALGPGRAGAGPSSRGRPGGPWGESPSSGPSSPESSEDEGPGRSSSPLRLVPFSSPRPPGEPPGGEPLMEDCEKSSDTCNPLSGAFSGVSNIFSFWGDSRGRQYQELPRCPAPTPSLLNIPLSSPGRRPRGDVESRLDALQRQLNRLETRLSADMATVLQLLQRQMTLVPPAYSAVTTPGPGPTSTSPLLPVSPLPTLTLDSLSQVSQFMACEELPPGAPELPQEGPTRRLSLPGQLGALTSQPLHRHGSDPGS

In the case of `CC(=O)NCC#Cc1ccc2c3cccc4c3c([n+](C)c2c1)-c1ccccc1N4C` [Compound 8], the “γ-H2AX foci formation relative to PCNA status” value [1] was “almost exclusively restricted to PCNA-positive”, the K [2] was 900000 M⁻¹ and the “mean TIFs per nucleus” value ([3]; 24 hrs) was “about seven”. For the same molecule, the “percentage of cells with more than four γ-H2AX/TRF1 colocalizations (TIF-positive)” value ([3]; 24 hrs, 0,5 μM) was roughly 40%, the inhibition at 1 µM [4] was 2% and the GI50 [5] was 750 nM. The inhibition at 10 µM [6] was 40%.
